# Laboratory results as given in PubChem BioAssay (NCI).
#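 All cell lines were grown in 96-well plates and treated with compound for 48 hours. GI50: concentration for 50% inhibition of growth. TGI: total growth inhibition.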
# Experiments:
# Experiment in all cases: NCI-60 cell line screen, 48 h
# 786-0 renal = system: 786-0 renal
# A498 renal = system: A498 renal
# A549 NSCLC = system: A549 NSCLC
# ACHN renal = system: ACHN renal
# BT-549 breast = system: BT-549 breast
# CAKI-1 renal = system: CAKI-1 renal
# CCRF-CEM leukemia = system: CCRF-CEM leukemia
# COLO 205 colon = system: COLO 205 colon
# DU-145 prostate = system: DU-145 prostate
# HCC-2998 colon = system: HCC-2998 colon
# HCT-116 colon = system: HCT-116 colon
# HCT-15 colon = system: HCT-15 colon
# HL-60(TB) leukemia = system: HL-60(TB) leukemia
# HOP-62 NSCLC = system: HOP-62 NSCLC
# HOP-92 NSCLC = system: HOP-92 NSCLC
# HS 578T breast = system: HS 578T breast
# HT29 colon = system: HT29 colon
# IGROV1 ovarian = system: IGROV1 ovarian
# K-562 leukemia = system: K-562 leukemia
# KM12 colon = system: KM12 colon
# LOX IMVI melanoma = system: LOX IMVI melanoma
# MALME-3M melanoma = system: MALME-3M melanoma
# MCF7 breast = system: MCF7 breast
# MDA-MB-435 = system: MDA-MB-435
# MOLT-4 leukemia = system: MOLT-4 leukemia
# NCI-H226 lung = system: NCI-H226 lung
# NCI-H23 lung = system: NCI-H23 lung
# NCI-H460 lung = system: NCI-H460 lung
# NCI-H522 lung = system: NCI-H522 lung
# NCI/ADR-RES ovarian = system: NCI/ADR-RES ovarian
# OVCAR-3 ovarian = system: OVCAR-3 ovarian
# OVCAR-4 ovarian = system: OVCAR-4 ovarian
# OVCAR-5 ovarian = system: OVCAR-5 ovarian
# OVCAR-8 ovarian = system: OVCAR-8 ovarian
# PC-3 prostate = system: PC-3 prostate
# RPMI-8226 leukemia = system: RPMI-8226 leukemia
# RXF 393 renal = system: RXF 393 renal
# SF-268 CNS = system: SF-268 CNS
# SF-295 CNS = system: SF-295 CNS
# SK-MEL-2 melanoma = system: SK-MEL-2 melanoma
# SK-MEL-28 melanoma = system: SK-MEL-28 melanoma
# SK-MEL-5 melanoma = system: SK-MEL-5 melanoma
# SK-OV-3 ovarian = system: SK-OV-3 ovarian
# SN12C renal = system: SN12C renal
# SNB-19 CNS = system: SNB-19 CNS
# SNB-75 CNS = system: SNB-75 CNS
# SR leukemia = system: SR leukemia
# SW-620 colon = system: SW-620 colon
# T-47D breast = system: T-47D breast
# TK-10 renal = system: TK-10 renal
# U251 CNS = system: U251 CNS
# UACC-257 melanoma = system: UACC-257 melanoma
# UACC-62 melanoma = system: UACC-62 melanoma
# UO-31 renal = system: UO-31 renal
# M14 melanoma = system: M14 melanoma
# MDA-MB-231 breast = system: MDA-MB-231 breast
# SF-539 CNS = system: SF-539 CNS
compound,measurement,setting,value
COc1cc(Nc2cc(C)nc(N3CCN(c4ccnc5cc(Cl)ccc45)CC3)n2)cc(OC)c1,GI50,786-0 renal,0.153 µM
same,TGI,786-0 renal,5.82 µM
same,GI50,A498 renal,0.0842 µM
same,TGI,A498 renal,0.658 µM
same,GI50,A549 NSCLC,0.227 µM
same,TGI,A549 NSCLC,> 39.7 µM
same,GI50,ACHN renal,0.0727 µM
same,TGI,ACHN renal,> 100 µM
same,GI50,BT-549 breast,0.498 µM
same,TGI,BT-549 breast,6.61 µM
same,GI50,CAKI-1 renal,0.198 µM
same,TGI,CAKI-1 renal,> 100 µM
same,GI50,CCRF-CEM leukemia,0.268 µM
same,TGI,CCRF-CEM leukemia,> 100 µM
same,GI50,COLO 205 colon,0.202 µM
same,TGI,COLO 205 colon,0.537 µM
same,GI50,DU-145 prostate,0.318 µM
same,GI50,HCC-2998 colon,0.222 µM
same,TGI,HCC-2998 colon,4.22 µM
same,GI50,HCT-116 colon,0.103 µM
same,TGI,HCT-116 colon,5.45 µM
same,GI50,HCT-15 colon,0.0561 µM
same,TGI,HCT-15 colon,> 100 µM
same,GI50,HL-60(TB) leukemia,0.24 µM
same,TGI,HL-60(TB) leukemia,20.8 µM
same,GI50,HOP-62 NSCLC,0.194 µM
same,TGI,HOP-62 NSCLC,14.3 µM
same,GI50,HOP-92 NSCLC,0.0973 µM
same,TGI,HOP-92 NSCLC,4.68 µM
same,GI50,HS 578T breast,0.176 µM
same,TGI,HS 578T breast,> 100 µM
same,GI50,HT29 colon,0.266 µM
same,TGI,HT29 colon,2.08 µM
same,GI50,IGROV1 ovarian,0.267 µM
same,TGI,IGROV1 ovarian,> 100 µM
same,GI50,K-562 leukemia,0.108 µM
same,TGI,K-562 leukemia,> 61.9 µM
same,GI50,KM12 colon,0.0323 µM
same,TGI,KM12 colon,4.73 µM
same,GI50,LOX IMVI melanoma,0.133 µM
same,TGI,LOX IMVI melanoma,2.82 µM
same,GI50,MALME-3M melanoma,5.08 µM
same,TGI,MALME-3M melanoma,> 100 µM
same,GI50,MCF7 breast,0.0324 µM
same,TGI,MCF7 breast,> 100 µM
same,GI50,MDA-MB-435,0.0306 µM
same,TGI,MDA-MB-435,0.105 µM
same,GI50,MOLT-4 leukemia,0.4 µM
same,TGI,MOLT-4 leukemia,> 40.9 µM
same,GI50,NCI-H226 lung,0.362 µM
same,GI50,NCI-H23 lung,0.302 µM
same,TGI,NCI-H23 lung,> 100 µM
same,GI50,NCI-H460 lung,0.18 µM
same,TGI,NCI-H460 lung,> 32.3 µM
same,GI50,NCI-H522 lung,0.0501 µM
same,TGI,NCI-H522 lung,0.651 µM
same,GI50,NCI/ADR-RES ovarian,0.155 µM
same,TGI,NCI/ADR-RES ovarian,1.24 µM
same,GI50,OVCAR-3 ovarian,0.0662 µM
same,TGI,OVCAR-3 ovarian,0.437 µM
same,GI50,OVCAR-4 ovarian,0.128 µM
same,TGI,OVCAR-4 ovarian,> 100 µM
same,GI50,OVCAR-5 ovarian,0.487 µM
same,TGI,OVCAR-5 ovarian,> 100 µM
same,GI50,OVCAR-8 ovarian,0.337 µM
same,TGI,OVCAR-8 ovarian,> 79.1 µM
same,GI50,PC-3 prostate,0.245 µM
same,TGI,PC-3 prostate,> 100 µM
same,GI50,RPMI-8226 leukemia,0.313 µM
same,TGI,RPMI-8226 leukemia,3.51 µM
same,GI50,RXF 393 renal,0.0354 µM
same,TGI,RXF 393 renal,0.286 µM
same,GI50,SF-268 CNS,0.377 µM
same,TGI,SF-268 CNS,> 100 µM
same,GI50,SF-295 CNS,0.0496 µM
same,TGI,SF-295 CNS,0.439 µM
same,GI50,SK-MEL-2 melanoma,0.186 µM
same,TGI,SK-MEL-2 melanoma,> 100 µM
same,GI50,SK-MEL-28 melanoma,0.0993 µM
same,TGI,SK-MEL-28 melanoma,> 100 µM
same,GI50,SK-MEL-5 melanoma,0.0778 µM
same,TGI,SK-MEL-5 melanoma,0.351 µM
same,GI50,SK-OV-3 ovarian,0.253 µM
same,TGI,SK-OV-3 ovarian,> 78.9 µM
same,GI50,SN12C renal,0.309 µM
same,TGI,SN12C renal,> 100 µM
same,GI50,SNB-19 CNS,0.318 µM
same,TGI,SNB-19 CNS,> 100 µM
same,GI50,SNB-75 CNS,0.142 µM
same,TGI,SNB-75 CNS,1.06 µM
same,GI50,SR leukemia,0.169 µM
same,TGI,SR leukemia,3.3 µM
same,GI50,SW-620 colon,0.146 µM
same,TGI,SW-620 colon,> 100 µM
same,GI50,T-47D breast,2.36 µM
same,TGI,T-47D breast,> 100 µM
same,GI50,TK-10 renal,0.538 µM
same,TGI,TK-10 renal,41.3 µM
same,GI50,U251 CNS,0.268 µM
same,TGI,U251 CNS,> 100 µM
same,GI50,UACC-257 melanoma,0.907 µM
same,TGI,UACC-257 melanoma,> 100 µM
same,GI50,UACC-62 melanoma,0.0955 µM
same,TGI,UACC-62 melanoma,> 71.7 µM
same,GI50,UO-31 renal,0.139 µM
same,TGI,UO-31 renal,> 100 µM
CC#Cc1nc2ccccc2c(=O)[nH]1,GI50,786-0 renal,4.23 µM
same,TGI,786-0 renal,14.7 µM
same,GI50,A498 renal,1.38 µM
same,TGI,A498 renal,2.74 µM
same,GI50,A549 NSCLC,4.9 µM
same,TGI,A549 NSCLC,34.2 µM
same,GI50,ACHN renal,3.65 µM
same,TGI,ACHN renal,23.3 µM
same,GI50,BT-549 breast,2.34 µM
same,TGI,BT-549 breast,5.18 µM
same,GI50,CAKI-1 renal,6.15 µM
same,TGI,CAKI-1 renal,28.3 µM
same,GI50,CCRF-CEM leukemia,2.62 µM
same,TGI,CCRF-CEM leukemia,25.4 µM
same,GI50,COLO 205 colon,2.03 µM
same,TGI,COLO 205 colon,3.7 µM
same,GI50,DU-145 prostate,4.88 µM
same,TGI,DU-145 prostate,> 100 µM
same,GI50,HCC-2998 colon,1.99 µM
same,TGI,HCC-2998 colon,4.17 µM
same,GI50,HCT-116 colon,3.24 µM
same,TGI,HCT-116 colon,13 µM
same,GI50,HCT-15 colon,2.73 µM
same,TGI,HCT-15 colon,8.91 µM
same,GI50,HL-60(TB) leukemia,3.11 µM
same,TGI,HL-60(TB) leukemia,9.62 µM
same,GI50,HOP-62 NSCLC,3.18 µM
same,TGI,HOP-62 NSCLC,9.43 µM
same,GI50,HOP-92 NSCLC,2.3 µM
same,TGI,HOP-92 NSCLC,7.74 µM
same,GI50,HS 578T breast,4.92 µM
same,TGI,HS 578T breast,> 100 µM
same,GI50,HT29 colon,3.79 µM
same,TGI,HT29 colon,13.9 µM
same,GI50,IGROV1 ovarian,2.51 µM
same,TGI,IGROV1 ovarian,6.97 µM
same,GI50,K-562 leukemia,3.93 µM
same,TGI,K-562 leukemia,> 100 µM
same,GI50,KM12 colon,2.68 µM
same,TGI,KM12 colon,6.58 µM
same,GI50,LOX IMVI melanoma,1.82 µM
same,TGI,LOX IMVI melanoma,3.43 µM
same,GI50,M14 melanoma,3.28 µM
same,TGI,M14 melanoma,9.71 µM
same,GI50,MALME-3M melanoma,4.21 µM
same,TGI,MALME-3M melanoma,15 µM
same,GI50,MCF7 breast,3.07 µM
same,TGI,MCF7 breast,> 100 µM
same,GI50,MDA-MB-231 breast,2.1 µM
same,TGI,MDA-MB-231 breast,4.71 µM
same,GI50,MDA-MB-435,2.04 µM
same,TGI,MDA-MB-435,5.35 µM
same,GI50,MOLT-4 leukemia,2.9 µM
same,TGI,MOLT-4 leukemia,8.51 µM
same,GI50,NCI-H226 lung,2.3 µM
same,TGI,NCI-H226 lung,5.84 µM
same,GI50,NCI-H460 lung,3.89 µM
same,TGI,NCI-H460 lung,20.2 µM
same,GI50,NCI-H522 lung,5.27 µM
same,TGI,NCI-H522 lung,16.7 µM
same,GI50,NCI/ADR-RES ovarian,3.89 µM
same,TGI,NCI/ADR-RES ovarian,63.9 µM
same,GI50,OVCAR-3 ovarian,2.11 µM
same,TGI,OVCAR-3 ovarian,4.16 µM
same,GI50,OVCAR-4 ovarian,4.15 µM
same,TGI,OVCAR-4 ovarian,27.5 µM
same,GI50,OVCAR-5 ovarian,6.1 µM
same,TGI,OVCAR-5 ovarian,27.1 µM
same,GI50,OVCAR-8 ovarian,4.89 µM
same,TGI,OVCAR-8 ovarian,64.9 µM
same,GI50,RPMI-8226 leukemia,1.52 µM
same,TGI,RPMI-8226 leukemia,5.73 µM
same,GI50,RXF 393 renal,1.57 µM
same,TGI,RXF 393 renal,3.27 µM
same,GI50,SF-268 CNS,3.17 µM
same,TGI,SF-268 CNS,11.1 µM
same,GI50,SF-295 CNS,4.1 µM
same,TGI,SF-295 CNS,20.6 µM
same,GI50,SF-539 CNS,2.76 µM
same,TGI,SF-539 CNS,9.14 µM
same,GI50,SK-MEL-2 melanoma,3.2 µM
same,TGI,SK-MEL-2 melanoma,7.21 µM
same,GI50,SK-MEL-28 melanoma,4.55 µM
same,TGI,SK-MEL-28 melanoma,33.9 µM
same,GI50,SK-MEL-5 melanoma,1.65 µM
same,TGI,SK-MEL-5 melanoma,3.32 µM
same,GI50,SK-OV-3 ovarian,41.7 µM
same,TGI,SK-OV-3 ovarian,> 100 µM
same,GI50,SN12C renal,3.02 µM
same,TGI,SN12C renal,9.8 µM
same,GI50,SNB-19 CNS,13.3 µM
same,TGI,SNB-19 CNS,52.3 µM
same,GI50,SNB-75 CNS,2.09 µM
same,TGI,SNB-75 CNS,6.43 µM
same,GI50,SR leukemia,2.38 µM
same,TGI,SR leukemia,19 µM
same,GI50,SW-620 colon,3.7 µM
same,TGI,SW-620 colon,23 µM
same,GI50,T-47D breast,5.71 µM
same,TGI,T-47D breast,23 µM
same,GI50,TK-10 renal,5.06 µM
same,TGI,TK-10 renal,26.3 µM
same,GI50,U251 CNS,3.42 µM
same,TGI,U251 CNS,12.8 µM
same,GI50,UACC-257 melanoma,3.4 µM
same,TGI,UACC-257 melanoma,15.4 µM
same,GI50,UO-31 renal,3.18 µM
same,TGI,UO-31 renal,8.87 µM
